What was measured:
[1] = system: Gram negative organisms; test: Single/multiple pass through 2406 Nearfield Accoustical Processor with biocide, Nutrient Agar plates; type: cell-based; conditions: 250 ppm; after one pass through the sonicator, 16 kHz and 20 kHz, 750 kg/hr; initial count 4.8×10^6 cfu per millilitre
Excerpt: (§1) A mixture of Pigment Red 23,215.5 parts, Emulan OG (RTM) (35% solution in water), 153.7 parts, tributyl phosphate, 2 parts, and water, 128.8 parts are dispersed by re-circulation through a Bachofen KDL200 bead-mill until colouristic properties are within specification of UNISPERSE (RTM) Red RBS-PI as detailed in Example 1 and adjusted to pH 8.0-8.5 with 20% sodium hydroxide solution. This material is identified as having a bacterial count of 4.8×10^6 colony-forming units (cfu) per millilitre comprised of a mixture of Gram positive and Gram negative bacteria. It is treated with 250 parts per million(ppm) of pentane 1,5-dialdehyde and pumped through a 2406 Nearfield Accoustical Processor sonicating at 16 kHz and 20 kHz respectively with a plate separation of 6 mm (approximately) at a flow rate of 750 kg/hr. Assessment bacterial activity is then done by spreading a sample of the pigment dispersion on Nutrient Agar(NA) plates and incubating at 30° C. for 48 hours. […] The temperature rise is 1° C. per pass, from a starting value of 20° C.

[2] = system: Gram positive organisms; test: as above; type: cell-based; conditions: 250 ppm; after four passes through the sonicator, 16 kHz and 20 kHz, 750 kg/hr; initial count 4.8×10^6 cfu per millilitre
Excerpt: as §1

## O=CCCCC=O [glutaraldehyde, pentane-1,5-dialdehyde]
[1]
  bacterial activity on Nutrient Agar plates, Gram negative organisms: no Gram negative organisms are evident
[2]
  bacterial activity on Nutrient Agar plates, Gram positive organisms: no Gram positive organisms are found
